Read-outs that look alike come from different tables or passages of the source.
Columns and labels:
[1] = for HPLC Conc./: based on free acid
Source text: pH-dependent solubility of the HBI- 3808 sodium salt of Pattern 2 was studied.
pH dependent solubility of the HBI- 3808 sodium salt of Pattern 5 was studied.

[2] = Stability study at 25° C./60% RH, 40° C./75% RH and 60° C. (XRPD, HPLC purity, impurity tracking); settings: for XRPD: number = sodium salt XRPD Pattern; for RRT 0.801 / RRT 0.959 / RRT 1.000 (HBI-3808) / RRT 1.025 (Isomer of HBI-3808) / RRT 1.767 / Total Impurities / RRT 1.932: impurity tracking
Source text: Stability of HBI-3808 Sodium Salt Pattern 2 was studied over 13 weeks.
Table 2F presents impurity tracking results from a 13-week stability study of HBI-3808 sodium salt of Pattern 2. […]

[3] = Dynamic vapor sorption (DVS) analysis; type: physicochemical
Description: GC analysis indicated residual solvent contents of 2847 ppm methanol; and 27 ppm TBME. […] No residual methanol or TBME was detected due to signal over-lap. […] TG-DSC analysis indicated two weight losses. The first weight loss of 2.3 wt. % was observed between 20-170° C. […] In the DSC thermogram, three endothermic events were observed (FIG. 17I). […] FT-IR (FIG. 17J) and Raman spectra (FIG. 17K) were recorded for reference. […] XRPD pattern of the ethanolamine salt was retained post-DVS (FIG. 17N). […] However, at the end of the experiment the solids on the microscope slide had discolored (FIG. 17O).

[4] = Hydration study in methanol/water aw 0.1, 0.5 and 0.9; type: physicochemical
Source text: Hydration studies of ethanolamine salt.

[5] = Varying humidity (VH)-XRPD; type: physicochemical
Description: During the sorption phase, sodium salt Pattern 2 was observed between 40-60% RH. […] A mixture of sodium salt Pattern 2 and 5 was also observed at 80% RH. […] During the second desorption, from 90% RH to 40% RH, sodium salt Pattern 5 was maintained.
VH-XRPD analysis was carried out between 40-0% RH (FIG. 5L).

[6] = 40° C./75% RH (open vial), 1 Week
[7] = 40° C./75% RH (open vial), 2 Weeks
[8] = 40° C./75% RH (open vial), 4 Weeks

**Q.** What does the source list for `CC1CCC2(C(=O)[O-])CCC3(C)C(=CCC4C5(C)CC(O)C(O)C(C)(CO)C5CCC43C)C2C1(C)O.[Na+]` (stereo not shown) [HBI-3808 sodium salt of Pattern 5, sodium salt of 23-hydroxytormentic acid]?
**A.** final Measured pH ([1]; FaSSGF): 9.34; HPLC Conc./ ([1]; FaSSGF): >150.33 mg/mL; concentration ([1]; pH 1.2): < 1000 ng/mL; HPLC Conc./ ([1]; target pH 1.2 chloride buffer, start 200 mg/mL (ethanolamine salt 100 mg/mL)): <0.001 mg/mL; HPLC Conc./ ([1]; target pH 3.0 acetate buffer): <0.001 mg/mL; HPLC Conc./ ([1]; target pH 4.0 acetate buffer): <0.001 mg/mL; HPLC Conc./ ([1]; target pH 6.8 phosphate buffer): 0.25 mg/mL; HPLC Conc./ ([1]; target pH 8.0 phosphate buffer): 12.84 mg/mL; HPLC/ % area ([2]; 25° C./60% RH (open vial), 1 Week): 96.4 % area; XRPD ([2]; 25° C./60% RH (open vial), 1 Week, * Traces of sodium salt Pattern 2): 5; HPLC/ % area ([2]; 25° C./60% RH (open vial), 2 Weeks): 96.7 % area; XRPD ([2]; 25° C./60% RH (open vial), 2 Weeks, * Traces of Pattern 2): 5; HPLC/ % area ([2]; 25° C./60% RH (open vial), 4 Weeks): 96.3 % area; XRPD ([2]; 25° C./60% RH (open vial), 4 Weeks, * Traces of Pattern 2): 5; HPLC/ % area [2, 6]: 96.7 % area; XRPD [2, 6]: 5; HPLC/ % area [2, 7]: 97.5 % area; XRPD [2, 7]: 5; HPLC/ % area [2, 8]: 96.6 % area; XRPD [2, 8]: 5; HPLC/ % area ([2]; 60° C. (closed vial), 1 Week): 96.1 % area; XRPD ([2]; 60° C. (closed vial), 1 Week): 5; HPLC/ % area ([2]; 60° C. (closed vial), 2 Weeks): 97.3 % area; XRPD ([2]; 60° C. (closed vial), 2 Weeks): 5; HPLC/ % area ([2]; 60° C. (closed vial), 4 Weeks): 96.1 % area; XRPD ([2]; 60° C. (closed vial), 4 Weeks): 5; change in chemical purity by HPLC over the stability study ([2]; all conditions (25° C./60% RH; 40° C./75% RH; 60° C.), 13 weeks (Pattern 5: 4 weeks)): no significant decrease in chemical purity; XRPD pattern over the stability study ([2]; all conditions, 4 weeks (Pattern 5), 13 weeks (ethanolamine salt)): Sodium salt Pattern 5 was retained; RRT 0.801 ([2]; 25° C./60% RH, 1 week): 0.37 % area; RRT 0.959 ([2]; 25° C./60% RH, 1 week): 0.14 % area; RRT 1.000 (HBI-3808) ([2]; 25° C./60% RH, 1 week): 96.39 % area; RRT 1.025 (Isomer of HBI-3808) ([2]; 25° C./60% RH, 1 week): 2.67 % area; RRT 1.767 ([2]; 25° C./60% RH, 1 week): 0.43 % area; Total Impurities ([2]; 25° C./60% RH, 1 week): 3.61 % area; RRT 0.801 ([2]; 25° C./60% RH, 2 weeks): 0.30 % area; RRT 1.000 (HBI-3808) ([2]; 25° C./60% RH, 2 weeks): 96.96 % area; RRT 1.025 (Isomer of HBI-3808) ([2]; 25° C./60% RH, 2 weeks): 2.74 % area; Total Impurities ([2]; 25° C./60% RH, 2 weeks): 3.04 % area; RRT 0.801 ([2]; 25° C./60% RH, 4 weeks): 0.26 % area; RRT 0.959 ([2]; 25° C./60% RH, 4 weeks): 0.13 % area; RRT 1.000 (HBI-3808) ([2]; 25° C./60% RH, 4 weeks): 96.33 % area; RRT 1.025 (Isomer of HBI-3808) ([2]; 25° C./60% RH, 4 weeks): 2.76 % area; RRT 1.767 ([2]; 25° C./60% RH, 4 weeks): 0.30 % area; RRT 1.932 ([2]; 25° C./60% RH, 4 weeks): 0.21 % area; Total Impurities ([2]; 25° C./60% RH, 4 weeks): 3.67 % area; RRT 0.801 ([2]; 40° C./75% RH, 1 week): 0.34 % area; RRT 0.959 ([2]; 40° C./75% RH, 1 week): 0.13 % area; RRT 1.000 (HBI-3808) ([2]; 40° C./75% RH, 1 week): 96.67 % area; RRT 1.025 (Isomer of HBI-3808) ([2]; 40° C./75% RH, 1 week): 2.52 % area; RRT 1.767 ([2]; 40° C./75% RH, 1 week): 0.34 % area; Total Impurities ([2]; 40° C./75% RH, 1 week): 3.33 % area; RRT 0.801 ([2]; 40° C./75% RH, 2 weeks): 0.37 % area; RRT 1.000 (HBI-3808) ([2]; 40° C./75% RH, 2 weeks): 97.47 % area; RRT 1.025 (Isomer of HBI-3808) ([2]; 40° C./75% RH, 2 weeks): 2.16 % area; Total Impurities ([2]; 40° C./75% RH, 2 weeks): 2.53 % area; RRT 0.801 ([2]; 40° C./75% RH, 4 weeks): 0.42 % area; RRT 0.959 ([2]; 40° C./75% RH, 4 weeks): 0.16 % area; RRT 1.000 (HBI-3808) ([2]; 40° C./75% RH, 4 weeks): 96.60 % area; RRT 1.025 (Isomer of HBI-3808) ([2]; 40° C./75% RH, 4 weeks): 2.34 % area; RRT 1.767 ([2]; 40° C./75% RH, 4 weeks): 0.25 % area; RRT 1.932 ([2]; 40° C./75% RH, 4 weeks): 0.22 % area; Total Impurities ([2]; 40° C./75% RH, 4 weeks): 3.40 % area; RRT 0.801 ([2]; 60° C., 1 week): 0.28 % area; RRT 0.959 ([2]; 60° C., 1 week): 0.15 % area; RRT 1.000 (HBI-3808) ([2]; 60° C., 1 week): 96.23 % area; RRT 1.025 (Isomer of HBI-3808) ([2]; 60° C., 1 week): 2.94 % area; RRT 1.767 ([2]; 60° C., 1 week): 0.40 % area; Total Impurities ([2]; 60° C., 1 week): 3.77 % area; RRT 0.801 ([2]; 60° C., 2 weeks): 0.38 % area; RRT 1.000 (HBI-3808) ([2]; 60° C., 2 weeks): 97.33 % area; RRT 1.025 (Isomer of HBI-3808) ([2]; 60° C., 2 weeks): 2.29 % area; Total Impurities ([2]; 60° C., 2 weeks): 2.67 % area; RRT 0.801 ([2]; 60° C., 4 weeks): 0.37 % area; RRT 0.959 ([2]; 60° C., 4 weeks): 0.19 % area; RRT 1.000 (HBI-3808) ([2]; 60° C., 4 weeks): 96.13 % area; RRT 1.025 (Isomer of HBI-3808) ([2]; 60° C., 4 weeks): 2.71 % area; RRT 1.767 ([2]; 60° C., 4 weeks): 0.36 % area; RRT 1.932 ([2]; 60° C., 4 weeks): 0.23 % area; Total Impurities ([2]; 60° C., 4 weeks): 3.87 % area; RRT 0.801 ([2]; T = 0): 0.35 % area; RRT 1.000 (HBI-3808) ([2]; T = 0): 96.83 % area; RRT 1.025 (Isomer of HBI-3808) ([2]; T = 0): 2.66 % area; RRT 1.767 ([2]; T = 0): 0.17 % area; Total Impurities ([2]; T = 0): 3.17 % area; input purity by HPLC ([2]; input material of the stability study (baseline)): 96.8 % area; XRPD of recovered material post-DVS [3]: consistent with HBI-3808 sodium salt of Pattern 5; reversibility of mass uptake/loss ([3]; Pattern 2: second DVS cycle): reversible; water (mass) uptake ([3]; at 80% RH/25° C. (Pattern 2: second DVS cycle)): 0.8 wt. %; XRPD of solids recovered at the end of the experiment [4]: consistent with sodium salt Pattern 2; XRPD pattern / form stability over relative humidity ([5]; 0-90% RH): stable to relative humidity between 90-0% RH; XRPD pattern during desorption ([5]; 40-0% RH, 30° C.): no change in diffractogram

Source: patent US20250326785A1, “SODIUM SALT AND ETHANOLAMINE SALT OF 23-HYDROXYTORMENTIC ACID” (HUYABIO International, LLC, priority 2024, published 2025)
